# Results from US20150250765A1, “NITAZOXANIDE AND MEBENDAZOLE SYNERGIC COMPOSITION, PROCESSES FOR THE PREPARATION THEREOF, AND USE OF SAID COMPOSITION FOR THE TREATMENT OF HUMAN PARASITOSIS” (priority 2012, published 2015).
# Assays:
# [1] = test system: L4 helminth larvae; experiment: scale of larval motility; assay type: cell-based, trichuris spp; parameters: key: 0=death; 1=very low motility; 2=low motility; 3=normal motility; conditions: L4 helminth larvae in culture with drug; scale 0 to 3 points
# Experimental: The rats of the Sprague-Dawley vivarium strain, parasites naive, were infected with different kinds of […]. Trichuria trichuris infected eggs). Approximately 3 g of feces were placed in culture bottles. The feces were cultured to produce worms or larvae (L4 stage) at a temperature of 37° C. for 72 hours. In order to determine the in vitro anthelmintic effectiveness the larval migration inhibition test was used. […] The tubes were incubated at 37° C. for 16 hours. The total content of these tubes, 0.5 ml, was transferred to the filters located within the acrylic tubes and grown at room temperature for 18 hours to allow the larvae to migrate through the filters within the chamber. Then, the filters were removed from the chambers and the total number of larvae in the filters and in chambers was counted. 2) Another method for the larval motility assessment was using the “scale of larval motility” in the various tubes with the different drugs and the control group. The scale of motility is a scale from 0 to 3 points, wherein 0=death; 1=very low motility; 2=low motility and 3=normal motility.
# [2] = test system: Giardia intestinalis trophozoites; experiment: in vitro antiprotozoal effectiveness in intestinal Giardia culture (morphology, adhesion, viability of trophozoites); conditions: for Mobility Ranking / Ranking of trophozoites adhesion: 2 μg/ml (combination 1 + 1 μg/ml)
# Experimental: 1) The in vitro antiprotozoal effectiveness of the pharmaceutical combination of NTZX with […] was determined in an intestinal Giardia culture as compared with the NTZX and MBDZ active ingredients separately. In this study the morphology, the adhesion and the viability of the Giardias trophozoites was assessed in in vitro cultures.
# The antiparasitic agents used were NTZX at a 2 μg/ml concentration; MBDZ at a 2 μg/ml concentration and a pharmaceutical combination of 1 μg/ml NTZX and 1 μg/ml MBDZ. The trophozoites were obtained from the intestines of rats (Sprague-Dawley vivarium strain) previously infected with Giardia intestinalis.
# The trophozoites were isolated in a BI-S33 culture media containing 10% bovine serum without added antibiotic. From this media, 4.5 ml were extracted, which were separated in 8 glass tubes with screw caps. […] 4 of the tubes were exposed to the drugs for 4 hours and the other 4 tubes were exposed to the drugs for 24 hours. After the established periods of time were over (4 to 24 hours) the tubes underwent centrifugation (5 minutes at 500 rpm), where the supernatant was extracted and removed. The decanted material was then dyed with a 0.1% eosin solution to assess the viability of trophozoites: • a. The adhesion and growth uniformity of trophozoites was assessed, using an optical microscope in 5-10 fields (×100 and ×200). For this, a table was drafted describing the following:
# • b. The trophozoites viability rate was assessed, by using a Neubauer camera to the optical microscope. The percentage of non-viable trophozoites was estimated as compared with the total state of trophozoites (live and immobile). • c. The mobility and morphology of the trophozoites was assessed. Mobility is divided into:
# The normal morphology of trophozoites under the optical microscope is characterized by the following: unicellular organism, with pyriform morphology, bilateral symmetry, flagellated, bi-nucleated (vacuolar complex) on its dorsal face. Any change in morphology was correspondingly detailed.
# [3] = test system: L4 (larva or adult worm) of different kinds of helminths (eg. trichuris spp); experiment: inhibition of larval migration test; assay type: cell-based; conditions: 100 μg/ml (combination: 50 μg/ml NTZX and 50 μg/ml MBDZ), 16 hours at 37° C., then 18 hours migration
# Description: 1) In order to determine the in vitro anthelmintic effectiveness of the pharmaceutical combination of NTZX and MBDZ the “inhibition of larval migration test” was used, which was developed by […] et al. (1992) and modified by Rable et al. (1994) and Paolini et al. 2004). […] The rats of the Sprague-Dawley vivarium strain, parasites naive, were infected with different kinds of […]. Trichuria trichuris infected eggs). Approximately 3 g of feces were placed in culture bottles. The feces were cultured to produce worms or larvae (L4 stage) at a temperature of 37° C. for 72 hours. In order to determine the in vitro anthelmintic effectiveness the larval migration inhibition test was used. […] The tubes were incubated at 37° C. for 16 hours. The total content of these tubes, 0.5 ml, was transferred to the filters located within the acrylic tubes and grown at room temperature for 18 hours to allow the larvae to migrate through the filters within the chamber. Then, the filters were removed from the chambers and the total number of larvae in the filters and in chambers was counted. The larval migration inhibition (LMI) was determined using the following formula: [formula] Wherein A=larvae migrated ratio in the control and B=larvae migrated ratio in the treatments.
# [4] = 24 hours of exposure, optical microscope
Structure (SMILES),Motility scale [1],Mobility Ranking ([2]; 4 hours of drug exposure),Ranking of trophozoites adhesion ([2]; 4 hours of drug exposure),Mobility Ranking ([2]; 24 hours of drug exposure),Ranking of trophozoites adhesion ([2]; 24 hours of drug exposure),"microscopic morphological changes of trophozoites [2, 4]",parasites migration [3] [%],"inhibition at 100 µg/mL ([3]; Trichuris, read-out: larval migration inhibition (LMI)) [%]","adhered trophozoites (in words) [2, 4]","mobility of trophozoites (in words) [2, 4]",larval migration inhibition (LMI) [3] [%]
"COC(=O)Nc1nc2ccc(C(=O)c3ccccc3)cc2[nH]1 [MBDZ, Mebendazole]",1,2,4 (25-50),1,5 (50-100),"some trophozoites were globular, some folded, some of distorted forms (partial loss of bilateral symmetry)",30,70,,,
"CC(=O)Oc1ccccc1C(=O)Nc1ncc([N+](=O)[O-])s1 [NTZX, Nitazoxanide]",2,2,5 (50-100),1,7 (250-500),"globular trophozoites (very enlarged), a moderate amount of folded trophozoites and partial loss of dorsal vacuolar complex",40,,The amount of adhered trophozoites was moderate,A low number of motile trophozoites (mostly in situ) and erratic movements,60
